Data on twelve compounds can be found in ChEMBL document CHEMBL1201862, “PubChem BioAssay data set” (2004).

Each structure is given as a SMILES string.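 How tested: cells in 96-well plates exposed to compound for 48 hours at five concentrations. GI50 marks 50% less growth.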 Activity calls are given as the source filed them. No stated cut-off is given here; in the data, active = GI50 up to about 1.1 µM and inactive = higher.

Test systems include 786-0; MDA-MB-435; SK-OV-3; MOLT-4; PC-3; SNB-19; NCI/ADR-RES; SR; HOP-62; NCI-H460; MDA-N; U-251; UACC-257; MCF7; HCC 2998; OVCAR-5; OVCAR-4; NCI-H23; NCI-H226; Hs-578T.
What all share (test): NCI-60 cell line screen, 48 h

For `COC1C(OC(N)=O)C(O)C(Oc2ccc3c(O)c(NC(=O)c4ccc(O)c(CC=C(C)C)c4)c(=O)oc3c2C)OC1(C)C` (stereo not drawn), the GI50 is > 100 µM (inactive) in the experiment with 786-0; 71.8 µM (inactive) in the experiment on MDA-MB-435; > 100 µM (inactive) with SK-OV-3; 48 µM (inactive) in the experiment on MOLT-4; > 100 µM (inactive) with PC-3; > 100 µM (inactive) in the experiment on SNB-19. The GI50 was > 100 µM (inactive) with NCI/ADR-RES; 18.4 µM (inactive) with SR; > 100 µM (inactive) with HOP-62; 62.2 µM (inactive) in the experiment with NCI-H460; > 100 µM (inactive) with MDA-N; 99.5 µM (inactive) in the experiment with U-251. Besides, the GI50 in the experiment on UACC-257 was > 100 µM (inactive); with MCF7 it was > 100 µM (inactive); in the experiment on HCC 2998, 47.5 µM (inactive); in the experiment on OVCAR-5, > 100 µM (inactive).

With `O=C1OC[C@@H]2Cc3cc4c(cc3[C@H](c3ccc5c(c3)OCO5)[C@@H]12)OCO4`, the GI50 in the experiment with 786-0 is > 25 µM (inactive); in the experiment with MDA-MB-435, 13.3 µM (inactive); with OVCAR-4, 13.9 µM (inactive); with MOLT-4 it was 4.11 µM (inactive); with SNB-19 it was > 25 µM (inactive); in the experiment with NCI/ADR-RES it was 9.33 µM (inactive). For the same compound, the GI50 is 24 µM (inactive) in the experiment on SR; > 25 µM (inactive) with NCI-H23; 24.7 µM (inactive) in the experiment with HOP-62; > 25 µM (inactive) with NCI-H460; 12 µM (inactive) in the experiment on MDA-N; > 25 µM (inactive) with U-251. Moreover, the GI50 in the experiment with UACC-257 is > 25 µM (inactive); in the experiment on MCF7, 24.2 µM (inactive); with HCC 2998, > 25 µM (inactive); with OVCAR-5 it was > 25 µM (inactive).

Turning to `CCCCNC(=S)Nc1nc(C(=O)NNS(=O)(=O)c2ccccc2)cs1`, the GI50 in the experiment on 786-0 was > 100 µM (inactive); with MDA-MB-435, 21.4 µM (inactive); with SK-OV-3, 36.6 µM (inactive); in the experiment with MOLT-4 it was 34.8 µM (inactive); in the experiment with PC-3, 29 µM (inactive); in the experiment with NCI/ADR-RES it was 60.3 µM (inactive). In addition, the GI50 in the experiment on SR was 41.1 µM (inactive); with NCI-H23, 44 µM (inactive); in the experiment on NCI-H226, > 10 µM (inactive); with HOP-62, 36.4 µM (inactive); with U-251, 39.5 µM (inactive); in the experiment with UACC-257, 22.9 µM (inactive). Besides, the GI50 with MCF7 was 42 µM (inactive); with HCC 2998 it was 30.5 µM (inactive); with OVCAR-5, 42 µM (inactive).

Consider `CC1=C(C(=O)NNC(=O)CC#N)CC(C(=O)NNC(=O)CC#N)=C(C)N1`, for which the GI50 with 786-0, with MDA-MB-435, with SK-OV-3, in the experiment on OVCAR-4, in the experiment on MOLT-4 and in the experiment on SNB-19 was > 100 µM (inactive) throughout. The GI50 in the experiment with NCI/ADR-RES, in the experiment on NCI-H23, in the experiment with NCI-H226, with HOP-62, with NCI-H460 and in the experiment with MDA-N was > 100 µM (inactive) in each case. Also, the GI50 with U-251, in the experiment on UACC-257, in the experiment on MCF7, in the experiment with HCC 2998 and with OVCAR-5 was > 100 µM (inactive) each time.

With `O=Cc1ccccc1B(O)O`, the GI50 is 43.4 µM (inactive) in the experiment with 786-0; 99.1 µM (inactive) with MDA-MB-435; > 100 µM (inactive) with SK-OV-3; 0.368 µM (active) with OVCAR-4; 1.09 µM (active) in the experiment with MOLT-4; 22.1 µM (inactive) in the experiment with PC-3. For the same compound, the GI50 was > 100 µM (inactive) in the experiment with SNB-19; 52 µM (inactive) in the experiment with NCI/ADR-RES; < 0.01 µM (active) with SR; > 100 µM (inactive) with NCI-H226; > 100 µM (inactive) with HOP-62; 0.231 µM (active) in the experiment with Hs-578T. Besides, the GI50 in the experiment with NCI-H460 was > 100 µM (inactive); with U-251, 30.7 µM (inactive); in the experiment with UACC-257, 25.8 µM (inactive); in the experiment on MCF7, 29.4 µM (inactive); in the experiment with OVCAR-5, 87.5 µM (inactive).

Consider `N#Cc1c(N)oc(-c2cccc([N+](=O)[O-])c2)c1C#N`, for which the GI50 is 27.7 µM (inactive) in the experiment with 786-0; 31.2 µM (inactive) in the experiment on MDA-MB-435; > 100 µM (inactive) in the experiment with SK-OV-3; 62.8 µM (inactive) with PC-3; 31.6 µM (inactive) in the experiment on SNB-19; 30.5 µM (inactive) in the experiment on NCI/ADR-RES. The GI50 was 46.6 µM (inactive) with SR; 21.4 µM (inactive) in the experiment with NCI-H23; 43.2 µM (inactive) in the experiment on NCI-H226; > 10 µM (inactive) with HOP-62; 32.8 µM (inactive) with Hs-578T; 27.5 µM (inactive) in the experiment on U-251. Moreover, the GI50 in the experiment on UACC-257 is 21.8 µM (inactive); in the experiment with MCF7 it was 53.3 µM (inactive); in the experiment on HCC 2998 it was 19.5 µM (inactive); in the experiment with OVCAR-5, 82.4 µM (inactive).

Regarding `O=C(CC(=O)c1cccc([N+](=O)[O-])c1)C(=O)Nc1nc([N+](=O)[O-])cs1`, the GI50 is > 100 µM (inactive) in the experiment on 786-0; > 100 µM (inactive) with SK-OV-3; 0.0307 µM (active) in the experiment with OVCAR-4; > 100 µM (inactive) in the experiment on MOLT-4; > 100 µM (inactive) with SNB-19; 83 µM (inactive) in the experiment with SR. Moreover, the GI50 in the experiment on NCI-H23, in the experiment on NCI-H226, with HOP-62, with NCI-H460, with U-251 and in the experiment with UACC-257 was > 100 µM (inactive) each time. Moreover, the GI50 in the experiment on HCC 2998 and in the experiment with OVCAR-5 was > 100 µM (inactive) in each case.

As to `CN(C)CCNC(=O)c1cccc2c(NC(CS)C(=O)O)c3ccccc3[n+](C)c12` (stereo not drawn), the GI50 with 786-0 was 69.2 µM (inactive); in the experiment with MDA-MB-435, 68.5 µM (inactive); in the experiment with SK-OV-3, > 100 µM (inactive); in the experiment with OVCAR-4, > 100 µM (inactive); in the experiment with MOLT-4, 41.9 µM (inactive); in the experiment on PC-3, 49 µM (inactive). For the same compound, the GI50 with SNB-19 was 84.7 µM (inactive); in the experiment with NCI/ADR-RES it was 33.8 µM (inactive); in the experiment with SR, 22.7 µM (inactive); in the experiment on NCI-H23 it was 89.5 µM (inactive); in the experiment with HOP-62, 60.8 µM (inactive); in the experiment with Hs-578T, > 100 µM (inactive). Besides, the GI50 was 45.5 µM (inactive) with NCI-H460; > 100 µM (inactive) with U-251; 60.3 µM (inactive) with UACC-257; 95.5 µM (inactive) in the experiment with MCF7; 50 µM (inactive) in the experiment on HCC 2998; > 100 µM (inactive) in the experiment with OVCAR-5.

Turning to `CC(C)(C)NNc1c([N+](=O)[O-])cnn(-c2ccccc2)c1=O`, the GI50 is 6.24 µM (inactive) in the experiment on 786-0; 1.81 µM (inactive) in the experiment on MDA-MB-435; 9.02 µM (inactive) with SK-OV-3; 3.59 µM (inactive) in the experiment on OVCAR-4; 2.13 µM (inactive) in the experiment with MOLT-4; 1.83 µM (inactive) in the experiment with PC-3. The GI50 in the experiment with SNB-19 was 11.2 µM (inactive); in the experiment on SR, 1.58 µM (inactive); with NCI-H23 it was 4.82 µM (inactive); in the experiment with NCI-H226, 7.96 µM (inactive); in the experiment with HOP-62 it was 8.63 µM (inactive); in the experiment with Hs-578T it was 7.76 µM (inactive). Moreover, the GI50 with NCI-H460 was 7.36 µM (inactive); in the experiment with U-251 it was 3.2 µM (inactive); in the experiment on UACC-257 it was 4.6 µM (inactive); in the experiment with MCF7, 2.92 µM (inactive); in the experiment with HCC 2998, 7.14 µM (inactive); in the experiment on OVCAR-5, 8.81 µM (inactive).

For the compound `CC12CC3CC/C(=N\O)C(C1)C3(N1CCOCC1)C/C2=N/O` (stereo not drawn), the GI50 in the experiment on 786-0, with MDA-MB-435, in the experiment with SK-OV-3, in the experiment on OVCAR-4, in the experiment with MOLT-4 and in the experiment on PC-3 was > 100 µM (inactive) in each case. Further, the GI50 in the experiment with SNB-19, with NCI/ADR-RES, in the experiment on SR, with NCI-H23, in the experiment on NCI-H226 and with HOP-62 was > 100 µM (inactive) each time. Besides, the GI50 in the experiment on NCI-H460, in the experiment with MDA-N, in the experiment with U-251, in the experiment with UACC-257, in the experiment on MCF7 and in the experiment on HCC 2998 was > 100 µM (inactive) throughout. In the experiment on OVCAR-5, the GI50 is > 100 µM (inactive).

With `Cc1ccc(C2CC(=O)CC(c3ccc(C)cc3)C23C(=O)NC(=O)NC3=O)cc1` (stereo not drawn), the GI50 is > 100 µM (inactive) in the experiment with 786-0; > 100 µM (inactive) in the experiment on MDA-MB-435; 71.1 µM (inactive) in the experiment on OVCAR-4; 45 µM (inactive) with MOLT-4; > 100 µM (inactive) in the experiment on PC-3; > 100 µM (inactive) in the experiment on SNB-19. For the same compound, the GI50 with NCI/ADR-RES was > 100 µM (inactive); in the experiment on SR, 60.1 µM (inactive); in the experiment with NCI-H23, > 100 µM (inactive); with NCI-H226 it was > 100 µM (inactive); in the experiment on HOP-62 it was 28.9 µM (inactive); in the experiment with NCI-H460, > 100 µM (inactive). Besides, the GI50 in the experiment on MDA-N, in the experiment with U-251, with UACC-257, in the experiment on MCF7, in the experiment on HCC 2998 and with OVCAR-5 was > 100 µM (inactive) each time.

For the compound `O=C1/C(=C/c2ccccc2)CNC/C1=C\c1ccccc1`, the GI50 in the experiment on 786-0 is 1.57 µM (inactive); in the experiment on SK-OV-3, 2.22 µM (inactive); in the experiment with OVCAR-4, 1.43 µM (inactive); in the experiment on MOLT-4 it was 0.429 µM (active); in the experiment with SNB-19, 3.28 µM (inactive); with SR, 0.659 µM (active). Moreover, the GI50 was 1.83 µM (inactive) in the experiment on NCI-H23; 2.42 µM (inactive) with NCI-H226; 2.84 µM (inactive) in the experiment with HOP-62; 1.36 µM (inactive) with NCI-H460; 0.36 µM (active) in the experiment on U-251; 5.51 µM (inactive) in the experiment on UACC-257. Also, the GI50 in the experiment on HCC 2998 was 1.87 µM (inactive); in the experiment on OVCAR-5 it was 2.44 µM (inactive).
